According to the supplement of paper PMC10307832:

Legend:
Assay in all cases: relative viability (nuclei count vs DMSO), 5 days (fraction); higher = more cells survive
IDH-C35 + Tozasertib = compound: Cc1ccccc1C(C(=O)NC1CCCCC1)N(C(=O)Cn1ccnc1C)c1cccc(F)c1 [IDH-C35] + Cc1cc(Nc2cc(N3CCN(C)CC3)nc(Sc3ccc(NC(=O)C4CC4)cc3)n2)n[nH]1 [Tozasertib] (partner 0.1 µM)
Method in brief: (§1)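 Lung cancer cell lines were seeded in 1536-well plates and dosed by pin tool the next day, with either a single drug or a fixed anchor-drug dose combined with five library-drug doses (not always all listed) spaced in √10 steps. Five days later, one step fixed the cells and stained their nuclei (final 0.05% Triton X-100, 1% formaldehyde, 1 ug/ml Hoechst), and nuclei were counted on 4× images. Relative viability is the nuclei count in treated wells divided by the count in vehicle wells, and each value is the median of duplicate plates.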

IDH-C35 + Phenformin = compound: Cc1ccccc1C(C(=O)NC1CCCCC1)N(C(=O)Cn1ccnc1C)c1cccc(F)c1 [IDH-C35] + N=C(N)NC(=N)NCCc1ccccc1 [Phenformin] (partner 250 µM)
Method in brief: as §1

IDH-C35 + Palbociclib = compound: Cc1ccccc1C(C(=O)NC1CCCCC1)N(C(=O)Cn1ccnc1C)c1cccc(F)c1 [IDH-C35] + CC(=O)c1c(C)c2cnc(Nc3ccc(N4CCNCC4)cn3)nc2n(C2CCCC2)c1=O [Palbociclib] (partner 0.5 µM)
Method in brief: as §1

IDH-C35 + Alpelisib = compound: Cc1ccccc1C(C(=O)NC1CCCCC1)N(C(=O)Cn1ccnc1C)c1cccc(F)c1 [IDH-C35] + Cc1nc(NC(=O)N2CCC[C@H]2C(N)=O)sc1-c1ccnc(C(C)(C)C(F)(F)F)c1 [Alpelisib] (partner 2 µM)
Method in brief: as §1

Cell Line | relative viability (IDH-C35 + Tozasertib; first compound 0.08 µM) | relative viability (IDH-C35 + Tozasertib; first compound 0.253 µM) | relative viability (IDH-C35 + Tozasertib; first compound 0.8 µM) | relative viability (IDH-C35 + Tozasertib; first compound 2.53 µM) | relative viability (IDH-C35 + Tozasertib; first compound 8 µM) | relative viability (IDH-C35 + Phenformin; first compound 0.08 µM) | relative viability (IDH-C35 + Phenformin; first compound 0.253 µM) | relative viability (IDH-C35 + Phenformin; first compound 0.8 µM) | relative viability (IDH-C35 + Phenformin; first compound 2.53 µM) | relative viability (IDH-C35 + Phenformin; first compound 8 µM) | relative viability (IDH-C35 + Palbociclib; first compound 0.08 µM) | relative viability (IDH-C35 + Palbociclib; first compound 0.253 µM) | relative viability (IDH-C35 + Palbociclib; first compound 0.8 µM) | relative viability (IDH-C35 + Palbociclib; first compound 2.53 µM) | relative viability (IDH-C35 + Palbociclib; first compound 8 µM) | relative viability (IDH-C35 + Alpelisib; first compound 0.08 µM) | relative viability (IDH-C35 + Alpelisib; first compound 0.253 µM) | relative viability (IDH-C35 + Alpelisib; first compound 0.8 µM) | relative viability (IDH-C35 + Alpelisib; first compound 2.53 µM) | relative viability (IDH-C35 + Alpelisib; first compound 8 µM)
201T | 0.927 | 0.914 | 0.893 | 0.928 | 0.828 | 0.469 | 0.431 | 0.436 | 0.466 | 0.438 | 0.361 | 0.375 | 0.346 | 0.351 | 0.343 | 0.989 | 0.998 | 0.95 | 0.968 | 1.02
A549 |  |  |  |  |  | 0.188 | 0.189 | 0.151 |  | 0.19 |  |  |  |  |  | 0.734 | 0.871 | 0.771 | 0.744 | 0.726
A-427 | 0.216 | 0.221 | 0.215 | 0.206 | 0.182 | 0.359 | 0.3 | 0.338 | 0.314 | 0.312 | 0.529 | 0.527 | 0.511 | 0.512 | 0.545 | 1.06 | 1.04 | 1.04 | 1.07 | 1.1
ABC-1 | 0.188 | 0.171 | 0.188 | 0.146 | 0.176 | 0.261 | 0.218 | 0.247 | 0.235 | 0.23 | 0.765 | 0.819 | 0.491 | 0.785 | 0.824 | 0.907 | 1.03 | 1 | 1.05 | 0.857
BEN | 0.5 | 0.429 | 0.515 | 0.474 | 0.552 | 0.292 | 0.246 | 0.257 | 0.279 | 0.282 | 0.433 | 0.514 | 0.466 | 0.481 | 0.463 | 0.988 | 0.927 | 0.885 | 0.975 | 0.942
CAL-12T | 0.307 | 0.306 | 0.303 | 0.379 | 0.301 | 0.546 | 0.618 | 0.556 | 0.589 | 0.498 | 0.524 | 0.575 | 0.414 | 0.525 | 0.408 | 1.26 | 1.26 | 1.11 | 1.14 | 1.1
COR-L23 | 0.253 | 0.174 | 0.263 | 0.195 | 0.158 | 0.478 | 0.42 | 0.423 | 0.421 | 0.382 | 0.31 | 0.294 | 0.305 | 0.311 | 0.315 | 0.759 | 0.765 | 0.782 | 0.769 | 0.746
COR-L 105 | 0.351 | 0.313 | 0.386 | 0.383 | 0.337 | 0.479 | 0.479 | 0.555 | 0.484 | 0.457 | 0.417 | 0.413 | 0.41 | 0.407 | 0.401 | 1.04 | 1.08 | 1.13 | 0.882 | 0.99
Calu-6 |  |  |  |  |  |  |  |  |  |  |  |  |  |  |  | 1 | 0.973 | 0.955 | 0.97 | 1.05
ChaGo-K-1 | 0.22 | 0.231 | 0.221 | 0.258 | 0.203 | 0.482 | 0.473 | 0.511 | 0.465 | 0.531 | 0.921 | 0.907 | 0.92 | 0.898 | 0.983 |  |  |  |  | 
EBC-1 |  |  |  |  |  |  |  |  |  |  |  |  |  |  |  | 0.879 | 0.826 | 0.843 | 0.867 | 0.738
EKVX | 0.422 | 0.373 | 0.361 | 0.378 | 0.344 | 0.245 | 0.219 | 0.227 | 0.229 | 0.189 | 0.402 | 0.365 | 0.385 | 0.356 | 0.373 | 0.868 | 0.858 | 0.852 | 0.819 | 0.831
EMC-BAC-2 | 0.304 | 0.298 | 0.314 | 0.28 | 0.283 | 0.5 | 0.584 | 0.583 | 0.508 | 0.493 | 0.522 | 0.505 | 0.563 | 0.543 | 0.497 | 0.79 | 0.665 | 0.739 | 0.756 | 0.709
EPLC-272H | 0.262 | 0.193 | 0.254 | 0.333 | 0.217 | 0.33 | 0.275 | 0.314 | 0.294 | 0.296 | 0.294 | 0.347 | 0.353 |  | 0.316 | 1.04 | 0.942 | 0.895 |  | 0.897
H3255 | 0.59 | 0.6 | 0.522 | 0.511 | 0.703 | 0.381 | 0.38 | 0.365 | 0.363 | 0.344 | 0.315 | 0.281 | 0.337 | 0.305 | 0.326 | 0.681 | 0.822 | 0.633 | 0.774 | 0.637
HARA | 0.0971 | 0.135 | 0.104 |  | 0.133 | 0.522 | 0.461 | 0.435 |  | 0.386 | 0.222 | 0.298 | 0.268 | 0.311 | 0.234 | 0.727 | 0.8 | 0.874 | 0.78 | 0.729
HCC-15 | 0.493 | 0.463 | 0.342 |  | 0.323 | 0.521 | 0.464 | 0.501 |  | 0.45 | 0.791 | 0.695 | 0.748 |  | 0.67 | 0.904 | 0.844 | 0.822 | 0.854 | 0.852
HCC-44 | 1.06 | 0.906 | 1 | 0.903 | 0.96 | 0.227 | 0.293 | 0.254 | 0.166 | 0.182 | 0.973 | 0.965 | 0.987 | 0.951 | 0.962 | 0.821 | 0.764 | 0.737 | 0.827 | 0.763
HCC-78 | 0.403 | 0.363 | 0.388 | 0.383 | 0.254 | 0.608 | 0.682 | 0.644 | 0.798 | 0.745 | 0.462 | 0.437 | 0.439 | 0.494 | 0.553 | 0.361 | 0.323 | 0.322 | 0.397 | 0.331
